Source: publication PMC9127186, “Molecular Basis Underlying Hepatobiliary and Renal Excretion of Phenolic Acids of Salvia miltiorrhiza Roots (Danshen)” (Frontiers in Pharmacology, 2022)
Like-named read-outs stand apart in the source and are kept apart here.

Tests used:
rat Ntcp = target: T1, rat Ntcp (Rattus norvegicus, UniProt P26435); assay: Cellular transport assay, HEK-293 cells expressing rat Ntcp; settings: Danshen phenolic acid at 100 μM final concentration, 10 min; rat Ntcp-transfected vs mock cells
T1 sequence (P26435 1-362): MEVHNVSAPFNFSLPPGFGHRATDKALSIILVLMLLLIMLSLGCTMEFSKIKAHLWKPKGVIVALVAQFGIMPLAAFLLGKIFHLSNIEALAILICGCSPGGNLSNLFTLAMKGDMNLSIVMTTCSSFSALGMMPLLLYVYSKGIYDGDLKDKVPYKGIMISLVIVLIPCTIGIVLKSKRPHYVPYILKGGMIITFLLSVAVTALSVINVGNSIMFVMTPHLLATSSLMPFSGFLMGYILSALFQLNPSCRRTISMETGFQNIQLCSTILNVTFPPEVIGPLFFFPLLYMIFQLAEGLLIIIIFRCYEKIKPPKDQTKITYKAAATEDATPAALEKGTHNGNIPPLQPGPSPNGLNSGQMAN

rat Oatp1a1 = target: T2, rat Oatp1a1 (Rattus norvegicus, UniProt P46720); assay: Cellular transport assay, HEK-293 cells expressing rat Oatp1a1; settings: Danshen phenolic acid at 100 μM final concentration, 10 min; rat Oatp1a1-transfected vs mock cells
T2 sequence (P46720 1-670): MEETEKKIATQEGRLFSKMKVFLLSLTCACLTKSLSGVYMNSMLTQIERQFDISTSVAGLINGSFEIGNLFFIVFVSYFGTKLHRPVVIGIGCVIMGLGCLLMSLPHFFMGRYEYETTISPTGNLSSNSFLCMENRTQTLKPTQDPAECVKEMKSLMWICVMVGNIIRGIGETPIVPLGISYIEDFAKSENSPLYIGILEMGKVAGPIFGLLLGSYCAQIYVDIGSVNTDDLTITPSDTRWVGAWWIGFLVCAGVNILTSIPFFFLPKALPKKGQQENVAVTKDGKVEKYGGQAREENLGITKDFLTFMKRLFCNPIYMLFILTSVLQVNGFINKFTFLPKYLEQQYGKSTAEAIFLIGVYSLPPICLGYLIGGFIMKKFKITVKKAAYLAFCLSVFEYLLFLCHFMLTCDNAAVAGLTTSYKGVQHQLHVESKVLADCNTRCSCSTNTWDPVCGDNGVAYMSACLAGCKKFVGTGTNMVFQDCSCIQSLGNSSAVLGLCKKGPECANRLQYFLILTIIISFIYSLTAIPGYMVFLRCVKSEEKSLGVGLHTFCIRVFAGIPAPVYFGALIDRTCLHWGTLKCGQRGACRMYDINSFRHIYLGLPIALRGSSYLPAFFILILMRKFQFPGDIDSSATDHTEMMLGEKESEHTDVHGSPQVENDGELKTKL

rat Pept2 [1] = target: T3, rat Pept2 (Rattus norvegicus, UniProt Q63424); assay: Cellular transport assay, HEK-293 cells expressing rat Pept2; settings: Danshen phenolic acid at 100 μM final concentration, 10 min, incubation pH 6.0; rat Pept2-transfected vs mock cells
T3 sequence (Q63424 1-729): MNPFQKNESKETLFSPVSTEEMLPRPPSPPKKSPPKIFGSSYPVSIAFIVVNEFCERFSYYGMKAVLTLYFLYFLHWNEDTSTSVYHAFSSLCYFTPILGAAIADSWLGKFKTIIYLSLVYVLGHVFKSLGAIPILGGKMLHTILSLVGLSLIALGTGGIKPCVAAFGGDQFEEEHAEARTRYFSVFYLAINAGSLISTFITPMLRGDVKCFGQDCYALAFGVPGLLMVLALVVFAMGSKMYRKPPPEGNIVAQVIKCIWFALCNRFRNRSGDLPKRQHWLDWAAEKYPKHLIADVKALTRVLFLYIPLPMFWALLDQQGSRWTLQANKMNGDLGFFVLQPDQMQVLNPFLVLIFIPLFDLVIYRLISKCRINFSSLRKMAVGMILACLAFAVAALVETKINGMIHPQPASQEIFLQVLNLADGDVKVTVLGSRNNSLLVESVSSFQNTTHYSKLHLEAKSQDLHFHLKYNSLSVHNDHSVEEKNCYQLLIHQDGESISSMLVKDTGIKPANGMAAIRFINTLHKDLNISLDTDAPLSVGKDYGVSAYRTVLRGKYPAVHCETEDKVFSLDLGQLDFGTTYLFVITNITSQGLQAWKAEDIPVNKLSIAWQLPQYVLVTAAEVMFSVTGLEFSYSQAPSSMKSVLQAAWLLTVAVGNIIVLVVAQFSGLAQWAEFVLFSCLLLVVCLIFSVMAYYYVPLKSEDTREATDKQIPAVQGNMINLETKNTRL

rat Pept2 [2] = target: T3, rat Pept2; settings: 10 min, 100 μM, pH 6
human NTCP = target: T4, human NTCP (Homo sapiens, UniProt Q14973); settings: 10 min, 100 μM
T4 sequence (Q14973 1-349): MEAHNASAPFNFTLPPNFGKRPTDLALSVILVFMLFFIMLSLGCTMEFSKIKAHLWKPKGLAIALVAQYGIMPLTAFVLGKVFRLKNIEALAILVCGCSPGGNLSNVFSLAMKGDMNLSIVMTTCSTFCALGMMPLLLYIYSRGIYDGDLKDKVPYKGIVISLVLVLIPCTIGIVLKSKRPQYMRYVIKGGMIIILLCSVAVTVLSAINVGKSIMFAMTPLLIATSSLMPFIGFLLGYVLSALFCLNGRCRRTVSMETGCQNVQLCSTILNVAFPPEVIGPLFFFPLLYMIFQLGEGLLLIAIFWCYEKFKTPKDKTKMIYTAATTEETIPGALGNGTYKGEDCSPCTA

human OCT1 = target: T5, human OCT1 (Homo sapiens, UniProt O15245); settings: 10 min, 100 μM
T5 sequence (O15245 1-554): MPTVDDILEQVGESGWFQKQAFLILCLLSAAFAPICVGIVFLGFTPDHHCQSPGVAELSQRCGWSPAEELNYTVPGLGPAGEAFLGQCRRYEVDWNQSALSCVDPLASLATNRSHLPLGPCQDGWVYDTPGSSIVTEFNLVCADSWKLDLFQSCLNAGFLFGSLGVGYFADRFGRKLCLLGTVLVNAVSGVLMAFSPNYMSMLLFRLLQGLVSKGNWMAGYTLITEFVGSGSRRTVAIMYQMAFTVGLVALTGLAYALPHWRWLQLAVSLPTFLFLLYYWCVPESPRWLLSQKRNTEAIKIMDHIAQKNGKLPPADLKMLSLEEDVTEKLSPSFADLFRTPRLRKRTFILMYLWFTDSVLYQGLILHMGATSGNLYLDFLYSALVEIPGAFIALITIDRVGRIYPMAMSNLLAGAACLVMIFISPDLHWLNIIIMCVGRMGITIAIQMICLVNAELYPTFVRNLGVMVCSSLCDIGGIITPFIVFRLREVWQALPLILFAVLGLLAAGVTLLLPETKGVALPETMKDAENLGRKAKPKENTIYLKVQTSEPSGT

Compound | TransportTC/TransportMC ratio (net transport ratio) (rat Ntcp) | TransportTC/TransportMC ratio (net transport ratio) (rat Oatp1a1) | TransportTC/TransportMC ratio (net transport ratio) (rat Pept2 [1]) | TransportTC/TransportMC ratio (net transport ratio) (rat Pept2 [2]) | TransportTC/TransportMC ratio (net transport ratio) (human NTCP) | TransportTC/TransportMC ratio (net transport ratio) (human OCT1)
O=C(/C=C/c1ccc(O)c2c1[C@H](C(=O)O)[C@@H](c1ccc(O)c(O)c1)O2)O[C@H](Cc1ccc(O)c(O)c1)C(=O)O [Lithospermic acid, lithospermic acid] | 1.71 ± 0.15 | 1.41 ± 0.67 | 0.85 ± 0.14 | – | – | –
O=C(O)c1ccc(O)c(O)c1 [Protocatechuic acid, protocatechuic acid] | 1.04 ± 0.27 | 1.66 ± 0.77 | 1.21 ± 0.26 | – | – | –
O=C(/C=C/c1ccc(O)c(O)c1)O[C@H](Cc1ccc(O)c(O)c1)C(=O)O [Rosmarinic acid, rosmarinic acid] | – | – | – | 0.84 ± 0.17 | 2.76 ± 0.36 | 1.46 ± 0.57
O=C(/C=C/c1ccc(O)c(O)c1/C=C/c1ccc(O)c(O)c1)O[C@H](Cc1ccc(O)c(O)c1)C(=O)O [Salvianolic acid A, salvianolic acid A] | – | – | – | 0.84 ± 0.19 | 0.93 ± 0.11 | 1.04 ± 0.32
O=C(O)Cc1c(/C=C/C(=O)O[C@H](Cc2ccc(O)c(O)c2)C(=O)O)ccc(O)c1O [Salvianolic acid D, salvianolic acid D] | 1.49 ± 0.23 | 2.45 ± 1.88 | 1.88 ± 0.45 | – | – | –
salvianolic acid B | 1.90 ± 0.02 | 1.91 ± 0.42 | 0.94 ± 0.21 | – | – | –
